Assay results reported in ChEMBL document CHEMBL4507261, “Data for DCP probe A-192621” (2021).

Experiments:
[1] = molecular target: Serine/threonine-protein kinase 33 (Homo sapiens) (UniProt Q9BYT3); details: Compound concentration 1000.0 nM
[2] = molecular target: Ephrin type-B receptor 1 (Homo sapiens) (UniProt P54762); details: Compound concentration 1000.0 nM
[3] = molecular target: Vasopressin V1a receptor (Homo sapiens) (UniProt P37288); experiment: V1 a (h) Eurofins-Cerep binding assay; set-up: ligand concentration 0.3 nM; details: filed as agonist, Compound concentration 10.0 uM
[4] = molecular target: Discoidin domain-containing receptor 2 (Homo sapiens) (UniProt Q16832); details: Compound concentration 1000.0 nM
[5] = molecular target: Calcium/calmodulin-dependent protein kinase type 1D (Homo sapiens) (UniProt Q8IU85); details: Compound concentration 1000.0 nM
[6] = molecular target: Muscarinic acetylcholine receptor M3 (Homo sapiens) (UniProt P20309); experiment: M3 (h) Eurofins-Cerep binding assay; set-up: ligand concentration 0.2 nM; details: filed as antagonist, Compound concentration 10.0 uM
Sequence of Muscarinic acetylcholine receptor M3 (Homo sapiens) (P20309 whole entry, looked up): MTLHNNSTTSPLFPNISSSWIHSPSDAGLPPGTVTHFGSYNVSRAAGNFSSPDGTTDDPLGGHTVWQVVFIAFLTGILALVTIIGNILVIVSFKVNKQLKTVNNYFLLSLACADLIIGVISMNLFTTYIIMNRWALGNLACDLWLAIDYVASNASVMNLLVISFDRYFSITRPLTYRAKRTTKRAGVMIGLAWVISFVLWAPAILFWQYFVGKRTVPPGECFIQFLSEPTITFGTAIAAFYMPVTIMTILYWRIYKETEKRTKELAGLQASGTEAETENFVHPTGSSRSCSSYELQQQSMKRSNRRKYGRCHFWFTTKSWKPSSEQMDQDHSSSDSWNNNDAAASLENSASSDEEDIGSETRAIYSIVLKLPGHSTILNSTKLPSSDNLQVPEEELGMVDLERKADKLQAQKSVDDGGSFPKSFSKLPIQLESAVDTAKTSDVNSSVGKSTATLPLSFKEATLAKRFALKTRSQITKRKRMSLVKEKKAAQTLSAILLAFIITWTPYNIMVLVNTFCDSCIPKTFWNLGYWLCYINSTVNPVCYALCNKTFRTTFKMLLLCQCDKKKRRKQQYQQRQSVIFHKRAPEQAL

[7] = molecular target: Tyrosine-protein kinase Srms (Homo sapiens) (UniProt Q9H3Y6); details: Compound concentration 1000.0 nM
Sequence of Tyrosine-protein kinase Srms (Homo sapiens) (Q9H3Y6 whole entry): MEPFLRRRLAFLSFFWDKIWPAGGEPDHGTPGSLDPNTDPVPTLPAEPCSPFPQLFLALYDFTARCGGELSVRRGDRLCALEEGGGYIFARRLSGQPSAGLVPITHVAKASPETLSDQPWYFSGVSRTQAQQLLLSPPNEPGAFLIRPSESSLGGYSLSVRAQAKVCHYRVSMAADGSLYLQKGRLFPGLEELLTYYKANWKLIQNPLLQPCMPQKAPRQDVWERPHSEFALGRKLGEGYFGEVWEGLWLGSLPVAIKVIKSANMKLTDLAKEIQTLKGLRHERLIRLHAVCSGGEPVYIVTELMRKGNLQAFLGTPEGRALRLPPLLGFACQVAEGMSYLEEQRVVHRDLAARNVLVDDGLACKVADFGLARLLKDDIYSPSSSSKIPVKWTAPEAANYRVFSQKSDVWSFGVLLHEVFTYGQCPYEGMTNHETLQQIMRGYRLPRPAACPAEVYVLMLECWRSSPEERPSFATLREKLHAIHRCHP

[8] = molecular target: Serine/threonine-protein kinase 32B (Homo sapiens) (UniProt Q9NY57); details: Compound concentration 1000.0 nM
[9] = molecular target: Serine/threonine-protein kinase Chk2 (Homo sapiens) (UniProt O96017); details: Compound concentration 1000.0 nM
[10] = molecular target: Serine/threonine-protein kinase PAK 1 (Homo sapiens) (UniProt Q13153); details: Compound concentration 1000.0 nM
[11] = molecular target: Ephrin type-A receptor 2 (Homo sapiens) (UniProt P29317); details: Compound concentration 1000.0 nM
[12] = molecular target: Protein kinase C epsilon type (Homo sapiens) (UniProt Q02156); details: Compound concentration 1000.0 nM
[13] = molecular target: Mitogen-activated protein kinase kinase kinase 1 (Homo sapiens) (UniProt Q13233); details: Compound concentration 1000.0 nM
[14] = molecular target: Cholecystokinin receptor type A (Homo sapiens) (UniProt P32238); experiment: CCK1 (CCKA) (h) Eurofins-Cerep binding assay; set-up: ligand concentration 0.08 nM; details: filed as agonist, Compound concentration 10.0 uM
[15] = molecular target: Tyrosine-protein kinase Fer (Homo sapiens) (UniProt P16591); details: Compound concentration 1000.0 nM
[16] = molecular target: STE20/SPS1-related proline-alanine-rich protein kinase (Homo sapiens) (UniProt Q9UEW8); details: Compound concentration 1000.0 nM
[17] = molecular target: Serine/threonine-protein kinase TAO1 (Homo sapiens) (UniProt Q7L7X3); details: Compound concentration 1000.0 nM
Sequence of Serine/threonine-protein kinase TAO1 (Homo sapiens) (Q7L7X3 whole entry): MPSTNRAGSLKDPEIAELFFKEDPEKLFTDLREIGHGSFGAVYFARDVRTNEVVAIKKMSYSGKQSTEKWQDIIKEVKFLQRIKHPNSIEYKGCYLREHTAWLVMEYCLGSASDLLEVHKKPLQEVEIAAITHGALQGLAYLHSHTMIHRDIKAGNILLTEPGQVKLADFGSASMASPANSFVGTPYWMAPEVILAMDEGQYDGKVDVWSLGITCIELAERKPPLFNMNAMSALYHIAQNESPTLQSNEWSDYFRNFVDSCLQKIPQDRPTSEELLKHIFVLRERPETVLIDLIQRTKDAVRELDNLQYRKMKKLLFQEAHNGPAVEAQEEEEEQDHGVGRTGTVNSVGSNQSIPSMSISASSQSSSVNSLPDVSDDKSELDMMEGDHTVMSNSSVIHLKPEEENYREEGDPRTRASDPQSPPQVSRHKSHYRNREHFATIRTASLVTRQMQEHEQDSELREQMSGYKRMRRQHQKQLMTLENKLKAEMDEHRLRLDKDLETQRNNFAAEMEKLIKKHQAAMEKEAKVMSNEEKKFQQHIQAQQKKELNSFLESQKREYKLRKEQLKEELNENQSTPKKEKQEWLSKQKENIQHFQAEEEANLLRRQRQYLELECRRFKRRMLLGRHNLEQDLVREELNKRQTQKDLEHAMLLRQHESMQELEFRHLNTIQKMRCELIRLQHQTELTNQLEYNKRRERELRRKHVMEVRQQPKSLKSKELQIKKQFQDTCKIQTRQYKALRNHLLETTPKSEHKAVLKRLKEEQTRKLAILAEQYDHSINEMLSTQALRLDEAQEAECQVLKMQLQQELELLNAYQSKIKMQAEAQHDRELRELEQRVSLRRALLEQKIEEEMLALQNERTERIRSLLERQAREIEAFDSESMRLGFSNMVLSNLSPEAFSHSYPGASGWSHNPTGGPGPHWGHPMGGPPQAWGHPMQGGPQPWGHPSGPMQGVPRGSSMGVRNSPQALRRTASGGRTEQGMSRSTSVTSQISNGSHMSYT

[18] = molecular target: Glycogen synthase kinase-3 beta (Homo sapiens) (UniProt P49841); details: Compound concentration 1000.0 nM
Sequence of Glycogen synthase kinase-3 beta (Homo sapiens) (P49841 whole entry, looked up): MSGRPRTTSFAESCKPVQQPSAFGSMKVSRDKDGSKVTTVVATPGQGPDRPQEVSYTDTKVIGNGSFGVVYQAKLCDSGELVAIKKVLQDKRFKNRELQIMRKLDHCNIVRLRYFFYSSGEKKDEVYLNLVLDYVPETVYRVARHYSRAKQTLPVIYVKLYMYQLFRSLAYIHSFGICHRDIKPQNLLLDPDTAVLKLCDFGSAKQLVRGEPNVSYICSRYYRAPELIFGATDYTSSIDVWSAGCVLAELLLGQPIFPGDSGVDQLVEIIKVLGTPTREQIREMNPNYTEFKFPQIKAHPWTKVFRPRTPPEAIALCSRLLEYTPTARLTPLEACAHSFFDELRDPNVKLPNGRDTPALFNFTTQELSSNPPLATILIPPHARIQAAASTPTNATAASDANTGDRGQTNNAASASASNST

[19] = molecular target: Cyclin-dependent kinase 7 (Homo sapiens) (UniProt P50613); details: Compound concentration 1000.0 nM
Sequence of Cyclin-dependent kinase 7 (Homo sapiens) (P50613 whole entry): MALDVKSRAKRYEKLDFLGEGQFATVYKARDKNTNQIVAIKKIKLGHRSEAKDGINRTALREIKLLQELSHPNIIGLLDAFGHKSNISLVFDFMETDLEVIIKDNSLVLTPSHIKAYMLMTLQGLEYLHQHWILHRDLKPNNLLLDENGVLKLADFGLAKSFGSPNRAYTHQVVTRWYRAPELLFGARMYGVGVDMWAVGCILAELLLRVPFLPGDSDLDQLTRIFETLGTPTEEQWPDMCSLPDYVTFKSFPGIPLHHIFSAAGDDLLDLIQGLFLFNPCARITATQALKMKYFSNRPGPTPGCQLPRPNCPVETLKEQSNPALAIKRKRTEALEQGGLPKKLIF

[20] = molecular target: Mitogen-activated protein kinase kinase kinase 20 (Homo sapiens) (UniProt Q9NYL2); details: Compound concentration 1000.0 nM
[21] = molecular target: Ephrin type-A receptor 1 (Homo sapiens) (UniProt P21709); details: Compound concentration 1000.0 nM
[22] = molecular target: Mitogen-activated protein kinase 8 (Homo sapiens) (UniProt P45983); details: Compound concentration 1000.0 nM
[23] = molecular target: Myosin light chain kinase, smooth muscle (Homo sapiens) (UniProt Q15746); details: Compound concentration 1000.0 nM
[24] = molecular target: Phosphatidylinositol 4-phosphate 5-kinase type-1 gamma (Homo sapiens) (UniProt O60331); details: Compound concentration 1000.0 nM
[25] = molecular target: Ribosomal protein S6 kinase beta-1 (Homo sapiens) (UniProt P23443); details: Compound concentration 1000.0 nM
[26] = tested on: Hepatocyte growth factor receptor (Homo sapiens), P08581 [Y1235D]; details: Compound concentration 1000.0 nM
[27] = molecular target: Cyclin-dependent kinase-like 5 (Homo sapiens) (UniProt O76039); details: Compound concentration 1000.0 nM
[28] = molecular target: Fibroblast growth factor receptor 1 (Homo sapiens) (UniProt P11362); details: Compound concentration 1000.0 nM
[29] = molecular target: Serine/threonine-protein kinase 38 (Homo sapiens) (UniProt Q15208); details: Compound concentration 1000.0 nM
Sequence of Serine/threonine-protein kinase 38 (Homo sapiens) (Q15208 2-465 limits assumed): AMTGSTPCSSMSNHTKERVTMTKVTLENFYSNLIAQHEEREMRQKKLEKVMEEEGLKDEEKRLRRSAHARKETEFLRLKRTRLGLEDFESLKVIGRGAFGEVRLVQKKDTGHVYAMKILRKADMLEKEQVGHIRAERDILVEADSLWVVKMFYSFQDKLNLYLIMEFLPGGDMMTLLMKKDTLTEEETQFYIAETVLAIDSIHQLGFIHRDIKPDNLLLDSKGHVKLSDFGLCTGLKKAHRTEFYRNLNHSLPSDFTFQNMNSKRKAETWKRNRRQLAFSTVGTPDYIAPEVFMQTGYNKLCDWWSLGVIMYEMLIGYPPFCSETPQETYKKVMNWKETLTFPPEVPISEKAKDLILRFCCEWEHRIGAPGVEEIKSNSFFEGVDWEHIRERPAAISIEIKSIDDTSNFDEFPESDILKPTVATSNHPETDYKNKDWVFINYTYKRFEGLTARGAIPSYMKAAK

[30] = molecular target: Serine/threonine-protein kinase WNK4 (Homo sapiens) (UniProt Q96J92); details: Compound concentration 1000.0 nM
Sequence of Serine/threonine-protein kinase WNK4 (Homo sapiens) (Q96J92 whole entry): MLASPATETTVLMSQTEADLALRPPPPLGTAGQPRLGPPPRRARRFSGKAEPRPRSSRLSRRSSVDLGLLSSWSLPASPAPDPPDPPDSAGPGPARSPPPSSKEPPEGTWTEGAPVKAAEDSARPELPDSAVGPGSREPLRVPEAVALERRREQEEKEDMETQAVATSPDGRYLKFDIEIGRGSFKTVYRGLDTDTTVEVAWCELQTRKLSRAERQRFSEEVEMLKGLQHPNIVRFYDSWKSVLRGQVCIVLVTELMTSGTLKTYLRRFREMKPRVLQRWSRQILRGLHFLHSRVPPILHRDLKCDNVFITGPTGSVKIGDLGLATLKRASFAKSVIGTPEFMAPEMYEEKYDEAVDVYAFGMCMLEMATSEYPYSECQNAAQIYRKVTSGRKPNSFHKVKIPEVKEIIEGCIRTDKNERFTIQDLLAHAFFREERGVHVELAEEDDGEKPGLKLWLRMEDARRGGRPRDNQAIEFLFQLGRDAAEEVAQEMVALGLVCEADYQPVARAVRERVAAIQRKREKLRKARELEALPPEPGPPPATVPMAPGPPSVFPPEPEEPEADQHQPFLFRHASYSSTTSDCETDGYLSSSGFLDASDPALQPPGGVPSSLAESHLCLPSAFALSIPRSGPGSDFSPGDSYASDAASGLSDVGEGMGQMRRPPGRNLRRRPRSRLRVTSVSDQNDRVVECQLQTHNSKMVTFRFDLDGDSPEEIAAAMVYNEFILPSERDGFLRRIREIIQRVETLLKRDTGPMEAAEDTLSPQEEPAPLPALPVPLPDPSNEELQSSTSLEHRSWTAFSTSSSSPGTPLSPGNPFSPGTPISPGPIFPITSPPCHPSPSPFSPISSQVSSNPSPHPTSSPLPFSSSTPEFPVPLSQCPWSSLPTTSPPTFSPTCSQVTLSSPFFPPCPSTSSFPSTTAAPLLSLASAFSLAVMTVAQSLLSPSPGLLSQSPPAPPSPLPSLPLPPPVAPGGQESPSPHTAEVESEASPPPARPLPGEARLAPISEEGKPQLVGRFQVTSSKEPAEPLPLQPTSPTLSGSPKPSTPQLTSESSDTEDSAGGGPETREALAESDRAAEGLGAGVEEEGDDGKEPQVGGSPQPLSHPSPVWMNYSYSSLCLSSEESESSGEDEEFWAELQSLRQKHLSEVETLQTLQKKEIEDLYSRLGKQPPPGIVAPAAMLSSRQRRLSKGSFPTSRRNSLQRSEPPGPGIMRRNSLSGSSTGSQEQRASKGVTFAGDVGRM

[31] = molecular target: Ribosomal protein S6 kinase alpha-5 (Homo sapiens) (UniProt O75582); details: Compound concentration 1000.0 nM
[32] = molecular target: voltage-gated L-type Ca2+ channel (diltiazem site, benzothiazepines) (Rattus norvegicus, UniProt P22002+P27732+Q02485); experiment: Ca2+ channel (L, diltiazem site) (benzothiazepines) Eurofins-Cerep binding assay; set-up: incubation time 120 min, incubation temperature RT, ligand concentration 15 nM; details: rat cerebral cortex (source of protein), probe [3H]diltiazem (15 nM), compound concentration 10 uM, read-out: % Inhibition of Control Specific Binding (Mean n=2)
[33] = molecular target: Beta-1 adrenergic receptor (Homo sapiens) (UniProt P08588); experiment: Beta1 (h) Eurofins-Cerep binding assay; set-up: ligand concentration 0.3 nM; details: filed as agonist, Compound concentration 10.0 uM
Sequence of Beta-1 adrenergic receptor (Homo sapiens) (P08588 whole entry, looked up): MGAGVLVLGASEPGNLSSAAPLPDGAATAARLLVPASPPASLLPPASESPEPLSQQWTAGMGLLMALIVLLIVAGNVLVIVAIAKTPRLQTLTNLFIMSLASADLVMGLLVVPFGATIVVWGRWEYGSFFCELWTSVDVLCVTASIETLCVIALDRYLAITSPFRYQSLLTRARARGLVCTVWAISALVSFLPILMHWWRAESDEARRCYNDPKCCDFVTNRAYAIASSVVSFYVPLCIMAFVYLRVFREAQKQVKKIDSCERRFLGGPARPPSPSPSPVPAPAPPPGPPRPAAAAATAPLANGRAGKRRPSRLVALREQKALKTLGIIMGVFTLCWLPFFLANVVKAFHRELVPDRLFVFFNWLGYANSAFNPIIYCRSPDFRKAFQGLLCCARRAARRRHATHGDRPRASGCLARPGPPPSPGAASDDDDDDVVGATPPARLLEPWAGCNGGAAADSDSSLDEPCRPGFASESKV

[34] = molecular target: Receptor-type tyrosine-protein kinase FLT3 (Homo sapiens) (UniProt P36888); details: Compound concentration 1000.0 nM
[35] = molecular target: Homeodomain-interacting protein kinase 4 (Homo sapiens) (UniProt Q8NE63); details: Compound concentration 1000.0 nM
[36] = molecular target: Non-receptor tyrosine-protein kinase TYK2 (Homo sapiens) (UniProt P29597); details: Compound concentration 1000.0 nM
[37] = molecular target: Casein kinase I isoform gamma-1 (Homo sapiens) (UniProt Q9HCP0); details: Compound concentration 1000.0 nM
[38] = molecular target: Cyclin-dependent kinase 9 (Homo sapiens) (UniProt P50750); details: Compound concentration 1000.0 nM
[39] = molecular target: Serine/threonine-protein kinase 32A (Homo sapiens) (UniProt Q8WU08); details: Compound concentration 1000.0 nM
[40] = molecular target: Calcitonin-gene-related peptide receptor, CALCRL/RAMP1 (Homo sapiens) (UniProt O60894+Q16602); experiment: CGRP (h) Eurofins-Cerep binding assay; type: protein-complex assay; set-up: ligand concentration 0.03 nM; details: filed as agonist, Compound concentration 10.0 uM
[41] = molecular target: Serine/threonine-protein kinase LATS2 (Homo sapiens) (UniProt Q9NRM7); details: Compound concentration 1000.0 nM
[42] = molecular target: Interleukin-1 receptor-associated kinase 3 (Homo sapiens) (UniProt Q9Y616); details: Compound concentration 1000.0 nM

## CCCOc1ccc([C@H]2[C@H](C(=O)O)[C@@H](c3ccc4c(c3)OCO4)CN2CC(=O)Nc2c(CC)cccc2CC)cc1 [A-192621]
[1]
  residual activity: 65%
[2]
  residual activity: 100%
[3]
  % Inhibition of Control Specific Binding (Mean n=2): 7.4%
[4]
  residual activity: 71%
[5]
  residual activity: 75%
[6]
  % Inhibition of Control Specific Binding (Mean n=2): -11.3%
[7]
  residual activity: 63%
[8]
  residual activity: 100%
[9]
  residual activity: 88%
[10]
  residual activity: 89%
[11]
  residual activity: 100%
[12]
  residual activity: 74%
[13]
  residual activity: 71%
[14]
  % Inhibition of Control Specific Binding (Mean n=2): 63.1%
[15]
  residual activity: 100%
[16]
  residual activity: 58%
[17]
  residual activity: 84%
[18]
  residual activity: 73%
[19]
  residual activity: 78%
[20]
  residual activity: 90%
[21]
  residual activity: 86%
[22]
  residual activity: 70%
[23]
  residual activity: 85%
[24]
  residual activity: 100%
[25]
  residual activity: 76%
[26]
  residual activity: 100%
[27]
  residual activity: 85%
[28]
  residual activity: 100%
[29]
  residual activity: 77%
[30]
  residual activity: 81%
[31]
  residual activity: 89%
[32]
  inhibition at 120 min, 10 µM: 4.2%
[33]
  % Inhibition of Control Specific Binding (Mean n=2): 1.4%
[34]
  residual activity: 87%
[35]
  residual activity: 70%
[36]
  residual activity: 80%
[37]
  residual activity: 100%
[38]
  residual activity: 88%
[39]
  residual activity: 93%
[40]
  % Inhibition of Control Specific Binding (Mean n=2): -6.1%
[41]
  residual activity: 97%
[42]
  residual activity: 100%

## CCCOc1ccc([C@@H]2[C@@H](C(=O)O)[C@H](c3ccc4c(c3)OCO4)CN2CC(=O)Nc2c(CC)cccc2CC)cc1 [A-1806262]
[1]
  residual activity: 69%
[2]
  residual activity: 91%
[3]
  % Inhibition of Control Specific Binding (Mean n=2): 15%
[4]
  residual activity: 74%
[5]
  residual activity: 97%
[6]
  % Inhibition of Control Specific Binding (Mean n=2): -0.6%
[7]
  residual activity: 90%
[8]
  residual activity: 100%
[9]
  residual activity: 98%
[10]
  residual activity: 98%
[11]
  residual activity: 100%
[12]
  residual activity: 97%
[13]
  residual activity: 80%
[14]
  % Inhibition of Control Specific Binding (Mean n=2): 75.9%
[15]
  residual activity: 100%
[16]
  residual activity: 78%
[17]
  residual activity: 100%
[18]
  residual activity: 100%
[19]
  residual activity: 86%
[20]
  residual activity: 100%
[21]
  residual activity: 100%
[22]
  residual activity: 87%
[23]
  residual activity: 100%
[24]
  residual activity: 100%
[25]
  residual activity: 79%
[26]
  residual activity: 99%
[27]
  residual activity: 83%
[28]
  residual activity: 100%
[29]
  residual activity: 83%
[30]
  residual activity: 80%
[31]
  residual activity: 97%
[32]
  inhibition at 120 min, 10 µM: 15.4%
[33]
  % Inhibition of Control Specific Binding (Mean n=2): 8.2%
[34]
  residual activity: 100%
[35]
  residual activity: 65%
[36]
  residual activity: 81%
[37]
  residual activity: 97%
[38]
  residual activity: 87%
[39]
  residual activity: 85%
[40]
  % Inhibition of Control Specific Binding (Mean n=2): -0.3%
[41]
  residual activity: 100%
[42]
  residual activity: 100%
